Reference: US8138168B1 (Takeda Pharmaceutical Company Limited, priority 2007, dated 2012)

Target: T1, Recombinant human renin (Homo sapiens, UniProt P00797)
T1 construct: isolate the active form (residues 67-406); made in house; host or cells: FreeStyle 293-F cells (transient expression of pcDNA3.1(+)/hREN)
T1 sequence (P00797 67-406): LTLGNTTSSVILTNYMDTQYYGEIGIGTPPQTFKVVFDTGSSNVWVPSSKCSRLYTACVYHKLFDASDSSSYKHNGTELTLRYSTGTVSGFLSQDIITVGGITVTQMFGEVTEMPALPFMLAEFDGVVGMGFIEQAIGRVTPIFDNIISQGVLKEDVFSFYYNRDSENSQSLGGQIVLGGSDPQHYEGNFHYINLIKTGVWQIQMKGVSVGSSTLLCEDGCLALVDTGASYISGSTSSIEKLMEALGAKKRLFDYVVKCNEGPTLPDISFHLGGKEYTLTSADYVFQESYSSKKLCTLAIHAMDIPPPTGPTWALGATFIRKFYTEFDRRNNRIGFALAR
Assay: In vitro enzymatic activity assay of renin inhibitors (fluorogenic peptide substrate)
Assay type: biochemical
Conditions: read-out: IC50 of Exemplified Compounds Against Renin
Outline: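 Enzyme: recombinant human renin, 3 nM final, 10 min compound pre-incubation at 37 °C; buffer 50 mM Hepes pH 7.4 with 0.1 mg/mL BSA or extra 2% BSA; 5% DMSO.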

COCCCn1c([C@@H]2CCCN(C(=O)C[C@H](N)Cc3ccc(-c4ccc(NC(C)=O)cc4)cc3)C2)nc2c(F)cccc21 [Compound 491, N-(4′-((R)-2-amino-4-((R)-3-(4-fluoro-1-(3-methoxypropyl)-1H-benzo[d]imidazol-2-yl)piperidin-1-yl)-4-oxobutyl)biphenyl-4-yl)acetamide] and COCCCn1c([C@@H]2CCCN(C(=O)C[C@H](N)Cc3ccc(-c4ccc5oc(N)nc5c4)cc3)C2)nc2c(F)cccc21 [Compound 463, (R)-3-amino-4-(4-(2-aminobenzo[d]oxazol-5-yl)phenyl)-1-((R)-3-(4-fluoro-1-(3-methoxypropyl)-1H-benzo[d]imidazol-2-yl)piperidin-1-yl)butan-1-one] cannot be ordered by IC50: less than 100 nM for the first, less than 100 nM for the second.

Compared with COCCCn1c([C@@H]2CCCN(C(=O)C[C@H](N)CNS(=O)(=O)c3cccc(Cl)c3)C2)nc2ccccc21 [Compound 300, N-((S)-2-amino-4-((R)-3-(1-(3-methoxypropyl)-1H-benzo[d]imidazol-2-yl)piperidin-1-yl)-4-oxobutyl)-3-chlorobenzenesulfonamide], COCCCn1c(C2CCCN(C(=O)C[C@@H](N)Cc3ccc(Cl)cc3)C2)nc2ccccc21 (stereo partly drawn) [Compound 67, (3S)-3-amino-4-(4-chlorophenyl)-1-(3-(1-(3-methoxypropyl)-1H-benzo[d]imidazol-2-yl)piperidin-1-yl)butan-1-one] is higher in IC50: 100 to 1000 nM for the first, greater than 1000 nM for the second. The first is the more potent here.

COCCCn1c([C@@H]2CCCN(C(=O)C[C@H](N)Cc3ccc(-c4ccc(C(=O)N[C@@H](C)CO)cc4)cc3)C2)nc2ccccc21 [Compound 187, 4′-((R)-2-amino-4-((R)-3-(1-(3-methoxypropyl)-1H-benzo[d]imidazol-2-yl)piperidin-1-yl)-4-oxobutyl)-N-((S)-1-hydroxypropan-2-yl)biphenyl-4-carboxamide] and COCCCn1c([C@@H]2CCCN(C(=O)C[C@H](N)Cc3ccc(-c4ccc(S(C)(=O)=O)cc4)cc3)C2)nc2ccccc21 [Compound 165, (R)-3-amino-1((R)-3-(1-(3-methoxypropyl)-1H-benzo[d]imidazol-2-yl)piperidin-1-yl)-4-(4′-(methylsulfonyl)biphenyl-4-yl)butan-1-one] cannot be ordered by IC50: less than 100 nM for the first, less than 100 nM for the second.

COCCCn1c([C@@H]2CCCN(C(=O)C[C@H](N)CNC(=O)Nc3ccccc3OC(F)F)C2)nc2ccccc21 [Compound 274, 1-((S)-2-amino-4-((R)-3-(1-(3-methoxypropyl)-1H-benzo[d]imidazol-2-yl)piperidin-1-yl)-4-oxobutyl)-3-(2-(difluoromethoxy)phenyl)urea] and COCCCn1c([C@@H]2CCCN(C(=O)C[C@H](N)CNC(=O)Nc3cccc(Oc4ccccc4)c3)C2)nc2ccccc21 [Compound 288, 1-((S)-2-amino-4-((R)-3-(1-(3-methoxypropyl)-1H-benzo[d]imidazol-2-yl)piperidin-1-yl)-4-oxobutyl)-3-(3-phenoxyphenyl)urea] fall in the same range of IC50: 100 to 1000 nM for the first, 100 to 1000 nM for the second.

COCCCn1c([C@@H]2CCCN(C(=O)C[C@H](N)CNC(=O)c3cccc(OC)c3)C2)nc2ccccc21 [Compound 310, N-((S)-2-amino-4-((R)-3-(1-(3-methoxypropyl)-1H-benzo[d]imidazol-2-yl)piperidin-1-yl)-4-oxobutyl)-3-methoxybenzamide] and COCCCn1c([C@@H]2CCCN(C(=O)C[C@H](N)Cc3ccccc3)C2)nc2ccccc21 [Compound 87, (R)-3-amino-1((R)-3-(1-(3-methoxypropyl)-1H-benzo[d]imidazol-2-yl)piperidin-yl)-4-phenylbutan-1-one] fall in the same range of IC50: 100 to 1000 nM for the first, 100 to 1000 nM for the second.

First: COCCCn1c([C@@H]2CCCN(C(=O)[C@@H]3CN(S(=O)(=O)c4ccc(C#N)cc4Cl)C[C@H]3N)C2)nc2ccccc21 [Compound 391, 4-((3S,4R)-3-amino-4-((R)-3-(1-(3-methoxypropyl)-1H-benzo[d]imidazol-2-yl)piperidine-1-carbonyl)pyrrolidin-1-ylsulfonyl)-3-chlorobenzonitrile]
Second: COCCCn1c([C@@H]2CCCN(C(=O)[C@@H]3CN(S(=O)(=O)c4cccc(Cl)c4Cl)C[C@H]3N)C2)nc2ccccc21 [Compound 363, ((3R,4S)-4-amino-1-(2,3-dichlorophenyisulfonyl)pyrrolidin-3-yl)((R)-3-(1-(3-methoxypropyl)-1H-benzo[d]imidazol-2-yl)piperidin-1-yl)methanone]
The IC50 of the first is higher: greater than 1000 nM for the first, 100 to 1000 nM for the second. The second is the more potent here.

COCCCn1c([C@@H]2CCCN(C(=O)[C@@H]3CN(C(=O)C(C)C)C[C@H]3N)C2)nc2ccccc21 [Compound 396, 1-((3S,4R)-3-amino-4-((R)-3-(1-(3-methoxypropyl)-1H-benzo[d]imidazol-2-yl)piperidine-1-carbonyl)pyrrolidin-1-yl)-2-methylpropan-1-one] and COCCCn1c([C@@H]2CCCN(C(=O)[C@@H]3CN(C(=O)c4ccccc4Cl)C[C@H]3N)C2)nc2ccccc21 [Compound 398, ((3R,4S)-4-amino-1-(2-chlorobenzoyl)pyrrolidin-3-yl)((R)-3-(1-(3-methoxypropyl)-1H-benzo[d]imidazol-2-yl)piperidin-1-yl)methanone] cannot be ordered by IC50: greater than 1000 nM for the first, greater than 1000 nM for the second.

First: COCCCn1c([C@@H]2CCCN(C(=O)C[C@H](N)CNC(=O)Nc3ccc4c(c3)CCC4)C2)nc2ccccc21 [Compound 266, 1-((S)-2-amino-4-((R)-3-(1-(3-methoxypropyl)-1H-benzo[d]imidazol-2-yl)piperidin-1-yl)-4-oxobutyl)-3-(2,3-dihydro-1H-inden-5-yl)urea]
Second: COCCCn1c([C@@H]2CCCN(C(=O)C[C@H](N)CNC(=O)N3CCCC3)C2)nc2ccccc21 [Compound 334, N-((S)-2-amino-4-((R)-3-(1-(3-methoxypropyl)-1H-benzo[d]imidazol-2-yl)piperidin-1-yl)-4-oxobutyl)pyrrolidine-1-carboxamide]
The IC50 of the first is lower: 100 to 1000 nM for the first, greater than 1000 nM for the second. The first is the more potent here.

COCCCn1c([C@@H]2CCCN(C(=O)C[C@H](N)Cc3ccc(-c4ccc5c(c4)SCC(=O)N5)cc3)C2)nc2c(C)cccc21 [Compound 496, 7-(4-((R)-2-amino-4-((R)-3-(1-(3-methoxypropyl)-4-methyl-1H-benzo[d]imidazol-2-yl)piperidin-1-yl)-4-oxobutyl)phenyl)-2H-benzo[b][1,4]thiazin-3(4H)-one] and CCOc1ccc(-c2ccc(C[C@@H](N)CC(=O)N3CCC[C@@H](c4nc5ccccc5n4CCCOC)C3)cc2)cn1 [Compound 138, (R)-3-amino-4-(4-(6-ethoxypyridin-3-yl)phenyl)-1-((R)-3-(1-(3-methoxypropyl)-1H-benzo[d]imidazol-2-yl)piperidin-1-yl)butan-1-one] cannot be ordered by IC50: less than 100 nM for the first, less than 100 nM for the second.

COCCCn1c([C@@H]2CCCN(C(=O)C[C@H](N)Cc3ccc(-c4ccc(C(=O)N5CC[C@@H](O)C5)cc4)cc3)C2)nc2ccccc21 [Compound 185, (R)-3-amino-4-(4′-((R)-3-hydroxypyrrolidine-1-carbonyl)biphenyl-4-yl)-1-((R)-3-(1-(3-methoxypropyl)-1H-benzo[d]imidazol-2-yl)piperidin-1-yl)butan-1-one] and COCCCn1c([C@@H]2CCCN(C(=O)C[C@H](N)Cc3ccc(-c4cn(C)c(=O)n(C)c4=O)cc3)C2)nc2ccccc21 [Compound 205, 5-(4-((R)-2-amino-4-((R)-3-(1-(3-methoxypropyl)-1H-benzo[d]imidazol-2-yl)piperidin-1-yl)-4-oxobutyl)phenyl)-1,3-dimethylpyrimidine-2,4(1H,3H)-dione] cannot be ordered by IC50: less than 100 nM for the first, less than 100 nM for the second.

Compared with COCCCn1c([C@@H]2CCCN(C(=O)[C@@H]3CN(S(=O)(=O)c4c(Cl)cc(Br)cc4Cl)C[C@H]3N)C2)nc2ccccc21 [Compound 339], COCCCn1c([C@@H]2CCCN(C(=O)[C@@H]3CN(S(=O)(=O)c4cccc(-c5noc(C)n5)c4)C[C@H]3N)C2)nc2ccccc21 [Compound 409, ((3R,4S)-4-amino-1-(3-(5-methyl-1,2,4-oxadiazol-3-yl)phenylsulfonyl)pyrrolidin-3-yl)((R)-3-(1-(3-methoxypropyl)-1H-benzo[d]imidazol-2-yl)piperidin-1-yl)methanone] is higher in IC50: 100 to 1000 nM for the first, greater than 1000 nM for the second. The first is the more potent here.

COCCCn1c([C@@H]2CCCN(C(=O)[C@@H]3CN(C(=O)CC4CCCCC4)C[C@H]3N)C2)nc2ccccc21 [Compound 397, l-((3S,4R)-3-amino-4-((R)-3-(1-(3-methoxypropyl)-1H-benzo[d]imidazol-2-yl)piperidine-1-carbonyl)pyrrolidin-1-yl)-2-cyclohexylethanone] and COCCCn1c([C@@H]2CCCN(C(=O)C[C@H](N)CNC(=O)N3CCOCC3)C2)nc2ccccc21 [Compound 328, N-((S)-2-amino-4-((R)-3-(1-(3-methoxypropyl)-1H-benzo[d]imidazol-2-yl)piperidin-1-yl)-4-oxobutyl)morpholine-4-carboxamide] cannot be ordered by IC50: greater than 1000 nM for the first, greater than 1000 nM for the second.

O=C(Nc1ccccc1)N1CCCC(c2nc3ccccc3[nH]2)C1 (stereo not drawn) [Compound 8, 3-(1H-benzo[d]imidazol-2-yl)-N-phenylpiperidine-1-carboxamide] and O=C(Nc1ccccc1-c1ccccc1)N1CCCC(c2nc3ccccc3[nH]2)C1 (stereo not drawn) [Compound 16, 3-(1H-benzo[d]imidazol-2-yl)-N-(biphenyl-2-yl)piperidine-1-carboxamide] cannot be ordered by IC50: greater than 1000 nM for the first, greater than 1000 nM for the second.

For COCCCn1c([C@@H]2CCCN(C(=O)C[C@H](N)Cc3ccc(F)c(F)c3)C2)nc2ccccc21 [Compound 76, (R)-3-amino-4-(3,4-difluorophenyl)-1((R)-3-(1-(3-methoxypropyl)-1H-benzo[d]imidazol-2-yl)piperidin-1-yl)butan-1-one], the IC50 was 100 to 1000 nM.
